Results published in patent US20170064966A1, “ANTIMICROBIAL COMPOSITIONS AND METHODS AND USES THEREOF” (BAR ILAN UNIVERSITY, priority 2015, published 2017).
Where a chain is given by its changes, count along the chain named. Names and notes keep the numbering of the source. Where two headings read alike, the source gives them in different places. Non-standard residues stand in square brackets, D forms with d. No end group written: not given here.

Key:
[1] = tested on: P. aeruginosa strains PAO1, PA14 and clinical isolate DK2; experiment: Flow cell biofilm experiment in the presence of inhibitory peptide
Procedure: Bacterial strains (Pseudomonas aeruginosa strains PA14 and DK2) containing the plasmid pUCP-GFP inserted to bacterial cells by electroporation (pUCP18 that constitutionally expresses the GFP under the lac promoter), were inoculated from −80° C. stock into 2 mL TSB containing 300 μg/mL Carb (to maintain the pUCP-GFP plasmid) and grown overnight at 37° C. with agitation. The next day, bacteria were diluted to 0.05 OD (595 nm) in 1% TSB containing the antibiotics and loaded onto 6 channel 1μ-Slide I^0.4 Luer uncoated (Ibidi). The slide was connected to a flow cell containing fresh 1% TSB with 0.05 Mm, 0.1 mM peptides or without peptides. Fresh media flowed through the slide by a pump at 10 mL/h (2 rpm). Bacteria were grown in the slide for 48 hours at 37° C. After 48 hours, 3 representative pictures from the beginning and the middle of the slide, were taken using SP8 confocal HyD microscope (Leica). Pictures were analyzed by Imaris software (version 7.2.2).

[2] = tested on: PA biofilm formation; experiment: Static biofilm model with N′-loop derived peptides (crystal violet); conditions: for anti-biofilm activity / inhibition of PA biofilm formation: peptides 1-6 at 0.01, 0.05 and 0.1 mM, FIG. 10B
[3] = type: binding; conditions: P^32-labeled phosphate, pH 7.5, FIG. 3C
[4] = measured under similar pH conditions, ref (18); read-out: phosphate binding (KD) reported for PstS orthologs; cited from earlier work

modified peptide-3: enantiomer of peptide-3 having the N-terminal Ala and C-terminal Glu residues in the D-form (SEQ ID NO. 56) ([dA]IDPALP[dE])
biofilm formation (biovolume) ([1]; 0.1 mM in media, 48 h, strains PAO1, PA14, DK2, FIG. 11A): significantly reduces the biofilm formation
biofilm formation phenotype, confocal microscope images ([1]; strains PAO1, PA14, DK2, 48 h, FIG. 11B): changes the biofilm formation phenotype of all PA strains examined
inhibition of PA biofilm formation ([2]; 0.1 millimolar modified peptide 3, FIG. 10C): efficiently inhibited biofilm formation

AIDPALPE
anti-biofilm activity / inhibition of PA biofilm formation [2]: inhibits most effectively biofilm formation
anti-biofilm activity / inhibition of PA biofilm formation ([2]; listed as peptide 3): most effective peptide

B1: wild-type PstS: periplasmic phosphate-binding subunit of the P. aeruginosa Pst transporter, purified from E. coli (protein)
chain: MKLKRLMAALTFVAAGVGAASAVAAIDPALPEYQKASGVSGNLSSVGSDTLANLMTMWAEEYKRLYPNVNIQIQAAGSSTAPPALTEGTANLGPMSRKMKDVELQAFEQKYGYKPTAVPVAVDALAIFVHKDNPIKGLTMQQVDAIFSATRLCGSKQDVKTWGDLGLTGDWAKKPVQLFGRNSVSGTYGYFKEEALCKGDFRPNVNEQPGSASVVQSVSQSLNGIGYSGIGYKTASVKTVALAKKEGAAFVEDNEQNALNGTYPLSRFLYVYVNKAPNKPLDPLEAQFLKLVLSKTGQQVVVKDGYIPLPAKVAEKAIKELGL
modifications: P.aeruginosa PstS - accession number NP_254056.1
Kd ([3]; read-out: dissociation constant (KD) for PO4): 840 ± 120 nM

B2: S96E (protein)
chain: B1 chain with S96E
modifications: The S96E PstS mutant
dissociation constant (KD) for PO4 [3]: very weak or no binding

B3: E. coli PstS: PstS ortholog from E. coli, literature value (18) (protein, UniProt P0AG82 26-346, looked up)
Phosphate-binding protein PstS: EASLTGAGATFPAPVYAKWADTYQKETGNKVNYQGIGSSGGVKQIIANTVDFGASDAPLSDEKLAQEGLFQFPTVIGGVVLAVNIPGLKSGELVLDGKTLGDIYLGKIKKWDDEAIAKLNPGLKLPSQNIAVVRRADGSGTSFVFTSYLAKVNEEWKNNVGTGSTVKWPIGLGGKGNDGIAAFVQRLPGAIGYVEYAYAKQNNLAYTKLISADGKPVSPTEENFANAAKGADWSKTFAQDLTNQKGEDAWPITSTTFILIHKDQKKPEQGTEVLKFFDWAYKTGAKQANDLDYASLPDSVVEQVRAAWKTNIKDSSGKPLY
Kd [4]: ~3000 nM
